Source: ChEMBL document CHEMBL1649564, “Anidulafungin treatment of candidal central nervous system infection in a murine model” (Antimicrob Agents Chemother, 2009)
≈ marks a conversion by molar mass, not a printed value. Calls of active or inactive are those of the source. No cut-off for these calls is given here. Numbered stars: 1 amine (or outer) side, 2 acyl side, 3 side chain; on linkers, the order of the positions; unused ones are H or OH. Bridge positions count the residues as written; N and C are the ends. Square brackets hold non-standard residues; d marks the D form. Peptide text beside a SMILES is read from it. * marks the point of attachment. pTerphenylCO(4''-OnC5H11) = CCCCCOc1ccc(-c2ccc(-c3ccc(C(=O)*)cc3)cc2)cc1; Orn(4R-OH,5R-OH) = O=C([C@H](C[C@@H](O)[C@@H](O)N[*:3])N[*:1])[*:2]; hTyr(3S-OH,4S-OH) = N[C@H](C(=O)O)[C@H](O)[C@@H](O)c1ccc(O)cc1; Pro(3S-OH,4S-Me) = C[C@H]1CN[C@H](C(=O)O)[C@H]1O; Hyp = O=C(O)[C@@H]1C[C@@H](O)CN1

Key:
[1] = Plasma concentration in mouse infected with Candida albicans at 10 mg/kg, ip after 3 hrs; assay type: ADME, organism-based; design: dose 10 mg/kg, route intraperitoneal; conditions: read-out: MIC
[2] = Plasma concentration in mouse infected with Candida albicans at 10 mg/kg, ip after 24 hrs; assay type: ADME, organism-based; design: dose 10 mg/kg, route intraperitoneal; conditions: read-out: MIC
[3] = Plasma concentration in mouse infected with Candida albicans at 5 mg/kg, ip after 12 hrs; assay type: ADME, organism-based; design: dose 5 mg/kg, route intraperitoneal; conditions: read-out: MIC
Candida albicans [4] = assay: Antifungal activity against Candida albicans infected in mouse assessed as fungal load in brain at 10 mg/kg, ip after 10 days; assay type: functional; conditions: route intraperitoneal
Candida albicans [5] = assay: Antifungal activity against Candida albicans infected in mouse assessed as decrease in fungal load in brain at 5 mg/kg, ip after 10 days; assay type: functional, organism-based; design: dose 5 mg/kg
[6] = Plasma concentration in mouse infected with Candida albicans at 5 mg/kg, ip after 3 hrs; assay type: ADME, organism-based; design: dose 5 mg/kg, route intraperitoneal; conditions: read-out: MIC
Candida albicans [7] = assay: Antifungal activity against Candida albicans; assay type: functional
[8] = Plasma concentration in mouse infected with Candida albicans at 10 mg/kg, ip after 6 hrs; assay type: ADME, organism-based; design: dose 10 mg/kg, route intraperitoneal; conditions: read-out: MIC
[9] = Plasma concentration in mouse infected with Candida albicans at 5 mg/kg, ip after 24 hrs; assay type: ADME, organism-based; design: dose 5 mg/kg, route intraperitoneal; conditions: read-out: MIC
[10] = Plasma concentration in mouse infected with Candida albicans at 10 mg/kg, ip after 1 hr; assay type: ADME, organism-based; design: dose 10 mg/kg, route intraperitoneal; conditions: read-out: MIC
[11] = Plasma concentration in mouse infected with Candida albicans at 10 mg/kg, ip after 12 hrs; assay type: ADME, organism-based; design: dose 10 mg/kg, route intraperitoneal; conditions: read-out: MIC
[12] = Plasma concentration in mouse infected with Candida albicans at 5 mg/kg, ip after 1 hr; assay type: ADME, organism-based; design: dose 5 mg/kg, route intraperitoneal; conditions: read-out: MIC
Candida albicans [13] = assay: Antifungal activity against Candida albicans infected in mouse assessed as decrease in fungus-induced mortality rate at 5 mg/kg, ip; assay type: functional, organism-based; design: dose 5 mg/kg
[14] = Plasma concentration in mouse infected with Candida albicans at 5 mg/kg, ip after 6 hrs; assay type: ADME, organism-based; design: dose 5 mg/kg, route intraperitoneal; conditions: read-out: MIC
[15] = Plasma concentration in mouse infected with Candida albicans at 60 mg/kg, po after 24 hrs; assay type: ADME, organism-based; design: dose 60 mg/kg, route oral; conditions: read-out: MIC
[16] = Plasma concentration in mouse infected with Candida albicans at 60 mg/kg, po after 12 hrs; assay type: ADME, organism-based; design: dose 60 mg/kg, route oral; conditions: read-out: MIC
Candida albicans [17] = assay: Antifungal activity against Candida albicans infected in mouse assessed as fungal load in brain at 60 mg/kg, po after 10 days; assay type: functional
[18] = Plasma concentration in mouse infected with Candida albicans at 60 mg/kg, po after 6 hrs; assay type: ADME, organism-based; design: dose 60 mg/kg, route oral; conditions: read-out: MIC
Candida albicans [19] = assay: Antifungal activity against Candida albicans infected in mouse assessed as decrease in fungus-induced mortality rate at 10 mg/kg, ip; assay type: functional, organism-based; design: dose 10 mg/kg
Candida albicans [20] = assay: Antifungal activity against Candida albicans infected in mouse assessed as decrease in fungus-induced mortality rate at 60 mg/kg, po; assay type: functional, organism-based; design: dose 60 mg/kg
[21] = Plasma concentration in mouse infected with Candida albicans at 60 mg/kg, po after 3 hrs; assay type: ADME, organism-based; design: dose 60 mg/kg, route oral; conditions: read-out: MIC
[22] = Plasma concentration in mouse infected with Candida albicans at 60 mg/kg, po after 1 hr; assay type: ADME, organism-based; design: dose 60 mg/kg, route oral; conditions: read-out: MIC

For `CCCCCOc1ccc(-c2ccc(-c3ccc(C(=O)N[C@H]4C[C@@H](O)[C@@H](O)NC(=O)[C@@H]5[C@@H](O)[C@@H](C)CN5C(=O)[C@H]([C@@H](C)O)NC(=O)[C@H]([C@H](O)[C@@H](O)c5ccc(O)cc5)NC(=O)[C@@H]5C[C@@H](O)CN5C(=O)[C@H]([C@@H](C)O)NC4=O)cc3)cc2)cc1` [ANIDULAFUNGIN] ({pTerphenylCO(4''-OnC5H11)}-[Orn(4R-OH,5R-OH)]T[Hyp][hTyr(3S-OH,4S-OH)]T[Pro(3S-OH,4S-Me)]; lactam 1-C), the concentration at 3 h [1] was 4910 ng/mL, the concentration at 24 h [2] was 1390 ng/mL and the concentration at 12 h [3] was 1180 ng/mL. For the same compound, the log10CFU/g (Candida albicans [4]) was 2.65, the inhibition (Candida albicans [5]) was “inactive” and the concentration at 3 h [6] was 1730 ng/mL. For the same compound, the MIC (Candida albicans [7]) was 0.03 µg/mL (≈ 0.0263 µM), the concentration at 6 h [8] was 3180 ng/mL and the concentration at 24 h [9] was 180 ng/mL. For the same compound, the concentration at 1 h [10] was 4020 ng/mL, the concentration at 12 h [11] was 2730 ng/mL and the concentration at 1 h [12] was 2500 ng/mL. The inhibition (Candida albicans [13]) was “inactive” and the concentration at 6 h [14] was 1660 ng/mL.

Work on `C[C@@H](c1ncncc1F)[C@](O)(Cn1cncn1)c1ccc(F)cc1F` [VORICONAZOLE] yielded a concentration at 24 h [15] of 160 ng/mL, an MIC (Candida albicans [7]) of 0.06 µg/mL (≈ 0.172 µM) and a concentration at 12 h [16] of 5370 ng/mL. The log10CFU/g (Candida albicans [17]) was 3.23, the concentration at 6 h [18] was 9470 ng/mL and the Activity (Candida albicans [19]) was “Active”. The inhibition (Candida albicans [20]) was “Active”, the concentration at 3 h [21] was 7280 ng/mL and the concentration at 1 h [22] was 7410 ng/mL.
